In patent US20220265657A1, “ADMINISTRATION METHOD AND DOSAGE REGIMEN FOR TREATMENT OF NEURODEGENERATIVE DISEASES USING TRAMETINIB AND MARKERS” (GENUV INC., priority 2019, published 2022):

Assays:
primary cortical neurons [1] = experiment: Immunofluorescence of LC3, LAMP1 and lysotracker in primary cortical neurons; type: cell-based, ICR mice; details: even in the presence of Aβ1-42 oligomers
Protocol: Cell culture: SH-SY5Y neuroblastoma cells were cultured at 37° C., 5% CO2., in Dulbecco's Modified Eagle Medium/Ham's F-12 nutrient mixture (DMEM/F12) (Invitrogen, Carlsbad, Calif.) supplemented with 10% heat-inactivated fetal bovine serum containing 100 units/ml penicillin, 100 μg/ml streptomycin. Primary cortical neuron cultures were derived from embryo day 18 (E18) from ICR mice. The dissociated cells were plated on glass cover slips coated with poly-D-lysine in Neurobasal medium supplemented with 2% B27 (Invitrogen), 100 units/ml penicillin, 100 μg/ml streptomycin, and 2 mM L-glutamine. Primary NSCs from normal mice were isolated from the subventricular zone (SVZ) of 8 week-old C57BL/6 mice brain. NSCs from adult Tg2576 mice brain were obtained from Seoul National University Hospital. […]
Immunocytochemistry: SH-SY5Y cells or adult NSCs were placed on glass coverslips coated with poly-L-ornithine/laminin or poly-D-lysine, respectively. […] The percentage of coefficient was calculated using the pixels above threshold of fluorescence intensities. […] The fluorescence intensity was observed under a confocal microscopy using a LSM700 microscope (Carl Zeiss). The number of LysoTracker puncta was analyzed with Icy software.

[2] = test system: patient with Alzheimer's disease; experiment: Therapeutic effects of trametinib in humans; type: in vivo, human; details: daily for at least four weeks, brain Cmax at least 0.25 ng/g
Protocol: Trametinib is administered to a patient with Alzheimer's disease in an amount that provides a mean peak trametinib concentration (Cmax) of at least 0.25 ng/g in the brain. The administration is performed daily for at least four weeks.

primary cortical neurons [3] = experiment: Western blot of primary cortical neurons; type: cell-based, ICR mice
Protocol: Lysates were centrifuged at 13,000 rpm for 20 min at 4° C., and the protein content in the supernatant was determined using the Bradford assay (Bio-rad, Hercules, Calif.). For subcellular fractionation, cells were lysed with lysis buffer (250 mM Sucrose, 20 mM HEPES, pH 7.4, 10 mM KCl, 1.5 mM MgCl2, 1 mM EGTA, 1 mM EDTA, 1 mM DTT) containing protease inhibitor for 30 min on ice, followed by centrifugation at 720 g for 5 min at 4° C. Supernatants were centrifuged at 15,000 rpm for 10 min at 4° C., and the resulting supernatant was used as the cytosol fraction. After centrifugation at 720 g for 5 min, pellets were washed with lysis buffer and dissolved in nuclear lysis buffer (50 mM Tris HCl, pH 8.0, 150 mM NaCl, 1% NP40, 0.5% sodium deoxycholate, 0.1% SDS, 10% glycerol) as the nuclear fraction. Protein from each sample was subjected to 8%˜15% SDS-PAGE, and the resolved proteins were transferred to nitrocellulose or polyvinylidene fluoride membrane. The membranes were blocked with 5% nonfat milk powder in Tris-buffered saline/Tween 20 (TBST) for 1 h at room temperature, then incubated with anti-phospho-ERK (Cell signaling), anti-ERK (Cell signaling), anti-LAMP1 (Abcam), anti-LC3 (Cell signaling), anti-cathepsin B (Cell signaling), anti-p62 (Cell signaling), anti-p62 (5114, Cell signaling), anti-phospho-mTOR (5536, Cell signaling), anti-mTOR (2983, Cell signaling), anti-phospho-ULK1 (14202, Cell signaling), anti-ULK1 (8054, Cell signaling), anti-TFEB (852501, Biolegend), and anti-GAPDH (Cell signaling) overnight at 4° C.

CC(=O)Nc1cccc(-n2c(=O)n(C3CC3)c(=O)c3c(Nc4ccc(I)cc4F)n(C)c(=O)c(C)c32)c1 [trametinib]
co-staining of LC3-LAMP1 (primary cortical neurons [1]): increased co-staining of LC3-LAMP1 | lysotracker-positive acidic puncta (primary cortical neurons [1]): increased | behavioral and/or physiological symptoms associated with Alzheimer's disease [2]: reduces behavioral and/or physiological symptoms associated with Alzheimer's disease | decrease of p-mTOR/mTOR ratio compared to Aβ1-42 treated alone group (primary cortical neurons [3]; 100 nM, co-treated with Aβ1-42): 67% | decrease of pULK1(S757) to total ULK1 ratio compared to Aβ1-42 treated alone neurons (primary cortical neurons [3]; co-treated with Aβ1-42): 29% | increase of mature cathepsin B level compared to vehicle treated control (CTL) (primary cortical neurons [3]; primary cortical neurons): 54% | increase of mature cathepsin B level compared to Aβ1-42 treated alone group (primary cortical neurons [3]; primary cortical neurons treated with Aβ1-42 oligomers): 73%
